Assay results from patent US7662851B2, “Use of specific cyklolignans” (Axelar AB, priority 2001, dated 2010).
pIC50: −log10 of the molar value. Like-named read-outs stand apart in the source and are kept apart here. Values belong to the molecule of their own block, whether it stands above or below them.

How the values were obtained:
[1] = test system: K562/S chronic myeloid leukemia cells; assay: Leukemia cell viability, K562/S; format: cell-based, human; conditions: 72 h
Experimental: (§1) The human chronic myeloid leukemia K562/S and K562/Vcr30 lines and the acute myeloid leukemia cell lines HL60/0 and HL60/Nov were obtained from ATCC. The K562/S and […] are wild type (non-resistant) cells, whereas K562/Vcr30 and HL60/Nov are cytostatic-resistant sublines. All leukemia cell lines were cultured in RPMI 1640 medium supplemented with 10% fetal bovine serum and with 2 mM L-glutamine, benzylpenicillin (100 U/ml) and streptomycin (100 μg/ml). The cells were grown in tissue culture flasks maintained at 95% air/5% CO2 atmosphere at 37° C. in a humidified incubator. For the experiments cells were cultured in 60-mm plastic dishes or 96-well plastic plates.
(§2) Cell proliferation kit II (Roche Inc.) is based on colorimetric change of the yellow tetrazolium salt XTT in orange formazan dye by the respiratory chain of viable cells (Roehm, N W, et al., J Immunol Methods 142:257-265, 1991). Cells seeded at a concentration of 5000/well in 100 μl medium in a 96-well plate were treated with different drugs in the given concentration. After 24 or 48 h the cells were incubated, according to the manufacturer's protocol, with XTT labelling mixture. After 4 h the formazan dye is quantified using a scanning multiwell spectrophotometer with a 495-nm filter. The absorbance is directly correlated with the number of viable cells. The standard absorbance curve was drawn by means of untreated cells seeded at a concentration of from 1000 to 10 000 cells/well with an increasing rate of 1000 cells/well. All standards and experiments were performed in triplicates.
(§3) Cells of said cell lines were seeded in 96-well plates (25 000 cells/well, medium volume per well was 100 μl), in […] medium supplemented with fetal calf serum. After 24 h picropodophyllin and the derivatives alpha-apopicropodophyllin and beta-apopicropodo-phyllin were added at different concentrations and the cells were incubated for 72 h. Cell viability was then assayed (see above). […] The results are based on 3 different experiments.
(§4) The leukemia cell lines K562/S, […], HL60/0 and HL60/Nov were cultured in 96-well plates as described in Experiment 7. After 24 h, the cells were treated for 72 h with different concentrations of the anti-cancer agent vincristine, with and without co-incubation with 0.05 μM picropodophyllin. […] Cell viability was then assayed. IC50 values for each inhibitor and cell line are shown below (Table 8). The results are based on 3 different experiments.

[2] = test system: K562/Vcr30 chronic myeloid leukemia cells; assay: Leukemia cell viability, K562/Vcr30; format: cell-based, human; conditions: K562/Vcr30, 72 h
Experimental: as §1, §2, §3, §4

[3] = test system: HL60/0 acute myeloid leukemia cells; assay: Leukemia cell viability, HL60/0; format: cell-based, human
Experimental: as §1, §2, §3, §4

[4] = test system: HL60/Nov acute myeloid leukemia cells; assay: Leukemia cell viability, HL60/Nov; format: cell-based, human
Experimental: as §1, §2, §3, §4

IGF-1R = IGF-1R (Homo sapiens, UniProt P08069); assay: Tyrosine phosphorylation of IGF-1R in intact FM55 melanoma cells; format: cell-based; design: endogenous in cells; conditions: for Level of IGF-1R phosphorylation in intact cells: FM55 melanoma cells, 1 h, means of 3 experiments
Experimental: Cells were cultured to subconfluency in 6-cm plates, and then fresh medium containing 10% FBS and the desired compounds were added for 1 h. The cells were then lyzed and subjected to immunoprecipitation using specific antibodies. Immunoprecipitates were resolved by sodium dodecyl sulphate polyacrylamide gel electrophoresis (SDS-PAGE) and transferred to nitro-cellulose membranes and incubated with anti-phosphotyrosine antibody. Antibodies to actin (in cell extract) or IGF-1R beta subunit were used as loading controls. After detection the films were scanned for quantification.
The isolated cells were then lyzed in 10 ml ice-cold PBSTDS containing protease inhibitors (Carlberg, M., et al., J Biol Chem 271:17453-17462, 1996). 50 μl protein A or G agarose was added in 1 ml sample and incubated for 15 min at 4° C. on an orbital shaker. After centrifugation for 10 min at 10,000 r/min at 4° C. the supernatant was saved. The protein content was determined by a dye-binding assay with a reagent purchased from Bio-Rad. Bovine serum albumin was used as a standard. 15 μl Protein G Plus agarose and 5 μl anti-IGF-1R were added. After a 3 h incubation at 4° C. on an orbital shaker the precipitate was collected by pulse centrifugation in a micro centrifuge at 14,000×g for 10 s. The supernatant was discarded and the pellet was washed 3 times with PBSTDS.
Protein samples were solved in a 2×-sample buffer containing Laemmli buffer and 0.5% […] and boiled for 5 min at 96° C. Samples were separated by SDS-PAGE with a 4% stacking gel and 7.5% separation gel. Molecular weight markers (Bio Rad, Sweden) were run simultaneously in all experiments.
Following SDS-PAGE the proteins were transferred overnight to nitro-cellulose membranes (Hybond, Amersham, UK) and then blocked for 1 h at room temperature in a solution of 4% skimmed milk powder and 0.02% Tween 20 in PBS, pH 7.5. Incubations with the primary antibodies were performed for 1 h at room temperature, followed by 3 washes with PBS with Tween and incubation with the second antibody for 1 h room temperature. After another 3 washes the membranes were incubated with Streptavidin-labelled horseradish peroxidase for 30 min and then detected using Amersham ECL system (Amersham, UK). The films were scanned by Fluor-S (BioRad).
FM55 melanoma cells were seeded in 6-cm dishes, at a concentration of 10,000 cells/cm^2 in Minimal Essential Medium supplemented with 10% fetal calf serum (FCS). When the cells reached a density of 65,000 cells/cm^2 in the dishes, they were treated for 1 h with 0.05 μM podophyllotoxin, deoxypodophyllotoxin, picropodophyllin, deoxypicropodophyllin, 4′-demethyl-7-(4,6-O-ethylidene-β-D-glucopyranosyl)epipodophyllotoxin (etoposide) and podophyllotoxin-4,6-O-benzylidene-β-D-glucopyranoside (pf-4,6-O). Etoposide and pf-4,6-O were also administered at 15 μM. The cells were then harvested for assay and quantification of IGF-1R phosphorylation as described in Experiment 1. The values shown in Table 1 represent means of 3 experiments.
FM55 melanoma cells were cultured in the same way as described in Experiment 1. When reaching a density of 65,000 cells/cm^2 in the dishes, they were treated for 1 h with 0 (control) and 0.05 μM of picropodophyllin and podophyllotoxin, respectively. The cells were then isolated and subjected to immunoprecipitation of the IGF-1R, fibroblast growth factor receptor (FGFR), platelet-derived growth factor receptor (PDGFR), epidermal growth factor receptor (EGFR), insulin receptor (IR) and insulin substrate-1 (IRS-1) using antibodies to respective molecules. IRS-1 is a substrate of IGF-1R, and therefore its phosphorylation is dependent on phosphorylated IGF-1R. Gelelectrophoresis, Western blotting and quantification of the different signals were performed as described above.

[5] = Local toxicity, subcutaneous osmotic pumps in nude mice; format: in vivo; conditions: subcutaneous osmotic pump loaded with 0.25 mg, 7 days
Experimental: Control mice were treated with the solvent. 3-6 animals were treated in each group.
The first set of experiments was carried out to investigate possible local and systemic toxic effects of podophyllotoxin, deoxypodophyllotoxin and picropodophyllin on nude mice. In the first experiment osmotic pumps loaded with either drug-free solvent, podophyllotoxin (0.25 mg), deoxypodophyllotoxin (0.25 mg) or picropodophyllin (0.25 mg) were implanted subcutaneously in the flank region. The drugs are delivered subcutaneously with a constant flow of 0.6 μl/h over 7 days. The volume of the pumps was 100 μl. After 7 days the mice were killed and the skin and subcutaneous tissue adjacent to the outlet of the pumps were analyzed and scored for tissue reactions by an experienced pathologist. There were 3 mice in each group.

[6] = Systemic toxicity, daily intraperitoneal injection in nude mice; conditions: for Signs of disease: up to 5 days
Experimental: Four to five-week old pathogen-free nude mice (nu/nu) were used and housed within plastic isolators in a sterile facility. […] Experimental treatments with podophyllotoxin, deoxypodophyllotoxin or picropodophyllin were performed by daily intraperitoneal injections of the compound in 100 μl volume of solvent, composed of a mixture of DMSO and physiological saline (8:2). Control mice were treated with the solvent. 3-6 animals were treated in each group. Animals were monitored three times a week for signs of disease and tumor growth. Tumor mass was estimated using the formula (d^2×D)/2, where d and D represent the small and large diameters of the tumor, respectively. The mice were carefully observed for presence of side effects and were sacrificed at the end of the experiments for histological analysis of the lesions. All experiments were performed according to the ethical guidelines for laboratory animal use, provided by institutional ethical committee.
In the next experiment we analyzed systemic effects of the drugs by injecting 100 μl intraperitoneally of each compound daily over 5 days. Two doses were injected (7 or 28 mg/kg/d) and 3-6 mice were used for each drug and dose. The mice were checked carefully daily for signs of discomfort, diseases and weight loss.

[7] = read-out: IC50 for cell viability
[8] = HL60, 72 h, read-out: IC50 for cell viability
[9] = 72 h, read-out: IC50 for cell viability
[10] = Homo sapiens, read-out: IC50 for cell viability, vincristine alone

IGF-1R, sequence (P08069 31-1367): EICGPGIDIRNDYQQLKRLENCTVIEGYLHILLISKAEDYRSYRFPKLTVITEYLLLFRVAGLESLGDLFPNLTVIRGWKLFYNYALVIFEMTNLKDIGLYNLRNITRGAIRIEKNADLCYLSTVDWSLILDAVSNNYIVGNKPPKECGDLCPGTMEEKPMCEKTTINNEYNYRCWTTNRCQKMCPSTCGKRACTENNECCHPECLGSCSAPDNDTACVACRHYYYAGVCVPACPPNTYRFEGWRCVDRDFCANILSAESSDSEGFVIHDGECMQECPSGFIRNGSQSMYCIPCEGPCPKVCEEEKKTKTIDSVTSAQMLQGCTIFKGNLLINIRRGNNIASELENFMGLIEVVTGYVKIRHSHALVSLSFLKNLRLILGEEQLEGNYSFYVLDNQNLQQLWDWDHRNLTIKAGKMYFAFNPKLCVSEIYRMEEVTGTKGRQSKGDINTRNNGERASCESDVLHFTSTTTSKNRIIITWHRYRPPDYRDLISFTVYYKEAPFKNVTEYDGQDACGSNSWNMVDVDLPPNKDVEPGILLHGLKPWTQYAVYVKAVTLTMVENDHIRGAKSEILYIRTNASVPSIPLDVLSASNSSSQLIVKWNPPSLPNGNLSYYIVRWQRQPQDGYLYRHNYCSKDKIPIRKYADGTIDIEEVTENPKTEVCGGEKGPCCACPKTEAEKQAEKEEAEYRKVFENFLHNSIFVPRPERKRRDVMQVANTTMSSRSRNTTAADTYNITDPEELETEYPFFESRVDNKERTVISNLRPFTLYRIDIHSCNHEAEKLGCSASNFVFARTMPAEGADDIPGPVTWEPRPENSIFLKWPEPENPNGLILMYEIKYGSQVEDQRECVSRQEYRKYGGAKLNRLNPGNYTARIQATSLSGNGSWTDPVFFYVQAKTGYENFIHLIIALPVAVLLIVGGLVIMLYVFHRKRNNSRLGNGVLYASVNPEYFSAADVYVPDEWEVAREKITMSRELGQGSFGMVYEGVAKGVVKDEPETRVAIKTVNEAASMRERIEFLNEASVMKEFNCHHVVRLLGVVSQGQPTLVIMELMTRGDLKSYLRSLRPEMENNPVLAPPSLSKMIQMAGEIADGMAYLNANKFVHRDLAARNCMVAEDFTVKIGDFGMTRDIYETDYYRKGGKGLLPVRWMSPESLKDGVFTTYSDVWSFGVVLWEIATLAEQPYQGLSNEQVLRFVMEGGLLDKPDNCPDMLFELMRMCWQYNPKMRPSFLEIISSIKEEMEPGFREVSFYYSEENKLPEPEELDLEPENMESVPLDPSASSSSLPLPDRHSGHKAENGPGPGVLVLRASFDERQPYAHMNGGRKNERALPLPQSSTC

Molecule: COc1cc([C@@H]2c3cc4c(cc3C=C3COC(=O)[C@H]32)OCO4)cc(OC)c1OC [Alpha-apopicro, α-apopicropodophyllin]
pIC50 [1, 7]: 7.40
pIC50 [2, 7]: 7.30
pIC50 [3, 8]: 7.70
pIC50 [4, 9]: 7.70

Molecule: COc1cc([C@@H]2c3cc4c(cc3C[C@H]3COC(=O)[C@H]32)OCO4)cc(OC)c1OC [Deoxypicropodophyllin, deoxypicropodophyllin]
Level of IGF-1R phosphorylation in intact cells (IGF-1R; 0.05 μM): 5 % OD

Molecule: COc1cc([C@@H]2c3cc4c(cc3C[C@H]3COC(=O)[C@@H]32)OCO4)cc(OC)c1OC [Deoxypodophyllotoxin, deoxypodophyllotoxin]
Local tissue reactions [5]: light damages
Surviving mice/Investigated mice ([6]; 7 mg/kg/d i.p., 1 d): 3/3
Surviving mice/Investigated mice ([6]; 7 mg/kg/d i.p., 2 d): 3/3
Surviving mice/Investigated mice ([6]; 7 mg/kg/d i.p., 3 d): 3/3
Surviving mice/Investigated mice ([6]; 7 mg/kg/d i.p., 4 d): 3/3
Surviving mice/Investigated mice ([6]; 7 mg/kg/d i.p., 5 d): 3/3
Surviving mice/Investigated mice ([6]; 28 mg/kg/d i.p., 1 d): 6/6
Surviving mice/Investigated mice ([6]; 28 mg/kg/d i.p., 2 d): 4/6
Surviving mice/Investigated mice ([6]; 28 mg/kg/d i.p., 3 d): 0/6
Signs of disease ([6]; high dose (28 mg/kg/d) i.p. daily): serious disease or death
Signs of disease ([6]; low dose (7 mg/kg/d) i.p. daily): serious signs of disease
Level of IGF-1R phosphorylation in intact cells (IGF-1R; 0.05 μM): 2 % OD

Molecule: COc1cc([C@@H]2c3cc4c(cc3[C@@H](O[C@@H]3O[C@@H]5CO[C@@H](C)O[C@H]5[C@H](O)[C@H]3O)[C@H]3COC(=O)[C@H]23)OCO4)cc(OC)c1O [Etoposide, 4′-demethyl-7-(4,6-O-ethylidene-β-D-glucopyranosyl)epipodophyllotoxin]
Level of IGF-1R phosphorylation in intact cells (IGF-1R; 0.05 μM): 102 % OD
Level of IGF-1R phosphorylation in intact cells (IGF-1R; 15 μM): 105 % OD

Molecule: COc1cc(C2c3cc4c(cc3C(OC3OC5COC(c6ccccc6)OC5C(O)C3O)C3COC(=O)C23)OCO4)cc(OC)c1OC [Pf-4,6-O, podophyllotoxin-4,6-O-benzylidene-β-D-glucopyranoside]
Level of IGF-1R phosphorylation in intact cells (IGF-1R; 0.05 μM): 100 % OD
Level of IGF-1R phosphorylation in intact cells (IGF-1R; 15 μM): 102 % OD
Effect on IGF-1R (IGF-1R; stated in description): completely disappeared

pIC50 [1, 10]: 8.80
pIC50 [2, 10]: 8.30
pIC50 ([3]; Homo sapiens, HL-60, HL60/0, 72 h, read-out: IC50 for cell viability, vincristine alone): 9.10
pIC50 ([4]; Homo sapiens, HL-60, 72 h, read-out: IC50 for cell viability, vincristine alone): 8.92
Molecule: CC[C@]1(O)C[C@H]2CN(CCc3c([nH]c4ccccc34)[C@@](C(=O)OC)(c3cc4c(cc3OC)N(C=O)[C@H]3[C@@](O)(C(=O)OC)[C@H](OC(C)=O)[C@]5(CC)C=CCN6CC[C@]43[C@@H]65)C2)C1 [Vincristine, vincristine, reference compound]

Molecule: β-apopicropodophyllin [Beta-apopicro]
pIC50 [1, 7]: 8.00
pIC50 [2, 7]: 8.00
pIC50 [3, 8]: 8.00
pIC50 [4, 9]: 8.00
